We go through 31 compounds from patent US7932262B2 (Novartis AG, priority 2006, dated 2011).

Like-named read-outs stand apart in the source and are kept apart here.

Assay [1] concerns the target T1, PDK1 kinase (Homo sapiens, UniProt O15530).
T1 sequence (O15530 1-556): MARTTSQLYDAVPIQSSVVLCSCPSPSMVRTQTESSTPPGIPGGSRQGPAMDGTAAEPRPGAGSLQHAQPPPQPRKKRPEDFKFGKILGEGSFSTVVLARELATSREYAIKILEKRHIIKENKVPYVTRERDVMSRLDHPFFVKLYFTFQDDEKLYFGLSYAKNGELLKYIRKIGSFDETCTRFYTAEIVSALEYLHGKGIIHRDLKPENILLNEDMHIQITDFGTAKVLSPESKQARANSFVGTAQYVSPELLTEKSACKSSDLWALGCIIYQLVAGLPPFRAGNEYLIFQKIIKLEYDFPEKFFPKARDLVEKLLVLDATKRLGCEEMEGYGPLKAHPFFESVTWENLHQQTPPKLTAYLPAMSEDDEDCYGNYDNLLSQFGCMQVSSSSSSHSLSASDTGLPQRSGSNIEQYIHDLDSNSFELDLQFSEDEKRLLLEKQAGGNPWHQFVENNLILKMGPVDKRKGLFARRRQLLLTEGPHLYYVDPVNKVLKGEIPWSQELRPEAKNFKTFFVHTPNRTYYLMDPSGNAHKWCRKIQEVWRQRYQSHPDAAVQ
The assay can be described thus: PDK1 Kinase Alpha Screen Assay. The assay is classed as biochemical. Conditions: PDK1 Kinase Alpha Screen Assay; read-out: PDK1 IC50. Put shortly: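 Test compounds were incubated with PDK1 kinase, 10 uM ATP and 50 nM biotinylated peptide substrate for 3-18 hours at pH 7.5 with 2.5% DMSO. Peptide phosphorylation was then detected by AlphaScreen proximity luminescence using a phospho-(Ser/Thr) PKA substrate antibody.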

In assay [2] the test system is A2780 cells. Put plainly: Cell Proliferation Assay (Cell Titer Glo), A2780. The assay is classed as cell-based. As to conditions: Homo sapiens, read-out: CPEC50 A2780. Put shortly: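 Cells seeded at 1000/well, allowed to adhere 3-5 h, then exposed to DMSO-dissolved compounds for 3 days at 37° C., 5% CO2. Medium replaced before Cell Titer Glo addition; luminescence read after 10 min.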
Background: ATP-based viability assays read luminescence as a measure of living cells.

[3] abbreviates: Cell Proliferation Assay, A2780.
Setting [4] is: cell proliferation, A2780 cells.

As a reminder, the IC50 is the concentration at which inhibition is half-maximal. Regarding `NS(=O)(=O)c1ccc(Nc2ncc3cccc(OCCN4CCOCC4)c3n2)cc1` [Compound 510, 4-(8-(2-mropholinoethoxy)quinazolin-2-ylamino)benzenesulfonamide], the IC50 in assay [1] is under 5 µM. Besides, in assay [2] (setting [3]), the EC50 was under 5 µM.
`NC(=O)c1cccc(COc2cccc3cnc(Nc4ccc(S(N)(=O)=O)cc4)nc23)c1` [Compound 513, 3-((2-(4-sulfamoylphenylamino)quinazolin-8-yloxy)methyl)benzamide]: the concentration for half-maximal inhibition (IC50) in assay [1] was under 5 µM. Also, in assay [2] (setting [3]), the EC50 is under 5 µM.
As to `CC(=O)Nc1ccc(COc2cccc3cnc(Nc4ccc(S(N)(=O)=O)cc4)nc23)cc1` [Compound 514, N-(4-((2-(4-sulfamoylphenylamino)quinazolin-8-yloxy)methyl)phenyl)acetamide], the IC50 in assay [1] is under 5 µM. In addition, in assay [2] (setting [3]), the EC50 is under 5 µM.
On to `CNC(=O)c1ccc(Nc2ncc3cccc(OC(C)C)c3n2)cc1` [Compound 515, 4-(8-isopropoxyquinazolin-2-ylamino)-N-methylbenzamide], for which the IC50 in assay [1] was under 5 µM. For the same compound, the EC50 in assay [2] (setting [3]) was under 5 µM.
With `CC(C)NC(=O)c1ccc(Nc2ncc3cccc(OC(C)C)c3n2)cc1` [Compound 516, 4-(8-isopropoxyquinazolin-2-ylamino)-N-isopropylbenzamide], the IC50 in assay [1] was under 5 µM. In addition, the EC50 in assay [2] (setting [3]) was under 5 µM.
For the compound `CNS(=O)(=O)c1ccc(Nc2ncc3cccc(OC(C)C)c3n2)cc1` [Compound 517, 4-(8-isopropoxyquinazolin-2-ylamino)-N-methylbenzenesulfonamide], the IC50 in assay [1] is under 5 µM. Moreover, the EC50 in assay [2] (setting [3]) is under 5 µM.
Consider `NS(=O)(=O)c1ccc(Nc2ncc3cccc(OCC(=O)N4CCOCC4)c3n2)cc1` [Compound 518, 4-(8-(2-morpholino-2-oxoethoxy)quinazolin-2-ylamino)benzenesulfonamide], for which the IC50 in assay [1] lay within 5 to 10 µM. Further, in assay [2] (setting [3]), the EC50 was in the range of 5 to 10 µM.
With `CC(C)Oc1cccc2cnc(Nc3ccc(S(C)(=O)=O)cc3)nc12` [Compound 554, 8-isopropoxy-N-(4-(methylsulfonyl)phenyl)quinazolin-2-amine], the half-inhibitory concentration (IC50) in assay [1] is under 5 µM. The EC50 in assay [2] (setting [3]) was under 5 µM.
`CC(C)Oc1cccc2cnc(Nc3cccc(S(C)(=O)=O)c3)nc12` [Compound 555, 8-isopropoxy-N-(3-(methylsulfonyl)phenyl)quinazolin-2-amine]: in assay [1], the IC50 was under 5 µM. Besides, in assay [2] (setting [3]), the EC50 is under 5 µM.
Turning to `CC(C)Oc1cccc2cnc(Nc3cccc(S(N)(=O)=O)c3)nc12` [Compound 556, 3-(8-isopropoxyquinazolin-2-ylamino)benzenesulfonamide], the half-maximal inhibitory concentration (IC50) in assay [1] is under 5 µM. Moreover, in assay [2] (setting [3]), the EC50 was under 5 µM.
As to `NS(=O)(=O)c1ccc(Nc2ncc3ccc(C(=O)O)cc3n2)cc1` [Compound 559, 2-(4-sulfamoylphenylamino)quinazoline-7-carboxylic acid], in assay [1], the IC50 is under 5 µM. Further, the EC50 in assay [2] (setting [3]) was in the range of 5 to 10 µM.
With `CNC(=O)c1ccc2cnc(Nc3ccc(S(N)(=O)=O)cc3)nc2c1` [Compound 561, N-methyl-2-(4-sulfamoylphenylamino)quinazoline-7-carboxamide], the IC50 in assay [1] was under 5 µM. Further, in assay [2] (setting [3]), the EC50 is under 5 µM.
In the case of `Cc1cc(S(N)(=O)=O)ccc1Nc1ncc2cccc(OC(C)C)c2n1` [Compound 562, 4-(8-isopropoxyquinazolin-2-ylamino)-3-methylbenzenesulfonamide], the IC50 in assay [1] is 10 to 25 µM. Further, in assay [2] (setting [3]), the EC50 was under 5 µM.
In the case of `NC(=O)c1ccc2cnc(Nc3ccc(S(N)(=O)=O)cc3)nc2c1` [Compound 564, 2-(4-sulfamoylphenylamino)quinazoline-7-carboxamide], in assay [1], the IC50 is under 5 µM. In assay [2] (setting [3]), the EC50 was under 5 µM.
On to `NS(=O)(=O)c1ccc(Nc2ncc3cccc(C(=O)O)c3n2)cc1` [Compound 622, 2-(4-sulfamoylphenylamino)quinazoline-8-carboxylic acid], for which, in assay [1], the IC50 was 5 to 10 µM. Moreover, the EC50 in assay [2] (setting [3]) lay within 5 to 10 µM.
`CC(C)NC(=O)c1cccc2cnc(Nc3ccc(S(N)(=O)=O)cc3)nc12` [Compound 624, N-isopropyl-2-(4-sulfamoylphenylamino)quinazoline-8-carboxamide]: in assay [1], the half-inhibitory concentration (IC50) is under 5 µM. Besides, the EC50 in assay [2] (setting [3]) is under 5 µM.
Turning to `NC(=O)c1ccc(COc2cccc3cnc(Nc4ccc(S(N)(=O)=O)cc4)nc23)cc1` [Compound 628, 4-((2-(4-sulfamoylphenylamino)quinazolin-8-yloxy)methyl)benzamide], the IC50 in assay [1] is under 5 µM. Besides, in assay [2] (setting [3]), the EC50 lay within 5 to 10 µM.
On the same counts, the results for `COc1ccc2cnc(Nc3ccc(S(N)(=O)=O)cc3)nc2c1` [Compound 629, 4-(7-methoxyquinazolin-2-ylamino)benzenesulfonamide] are under 5 µM and under 5 µM.
For `CN(C)CCOc1ccc2cnc(Nc3ccc(S(N)(=O)=O)cc3)nc2c1` [Compound 630, 4-(7-(2-(dimethylamino)ethoxy)quinazolin-2-ylamino)benzenesulfonamide], in assay [1], the IC50 is under 5 µM. Besides, the EC50 in assay [2] (setting [3]) was 5 to 10 µM.
Consider `NS(=O)(=O)c1ccc(Nc2ncc3ccc(OCC4CCNCC4)cc3n2)cc1` [Compound 631, 4-(7-(piperidin-4-ylmethoxy)quinazolin-2-ylamino)benzenesulfonamide], for which the half-inhibitory concentration (IC50) in assay [1] is under 5 µM. For the same compound, in assay [2] (setting [3]), the EC50 is under 5 µM.
Turning to `NS(=O)(=O)c1ccc(Nc2ncc3ccc(OCCC4CCNCC4)cc3n2)cc1` [Compound 632, 4-(7-(2-(piperidin-4-yl)ethoxy)quinazolin-2-ylamino)benzenesulfonamide], the IC50 in assay [1] was under 5 µM. Moreover, the EC50 in assay [2] (setting [3]) is under 5 µM.
Take `CC(C)Cn1cc(-c2ccc3cnc(Nc4ccc(S(N)(=O)=O)cc4)nc3c2)cn1` [Compound 849, 4-(7-(1-isobutyl-1H-pyrazol-4-yl)quinazolin-2-ylamino)benzenesulfonamide]: the IC50 in assay [1] is under 5 µM. Moreover, the EC50 in assay [2] (setting [4]) is under 5 µM.
As to `NS(=O)(=O)c1ccc(Nc2ncc3ccc(-c4ccnc(NCCN5CCCC5)c4)cc3n2)cc1` [Compound 850, 4-(7-(2-(2-(pyrrolidin-1-yl)ethylamino)pyridin-4-yl)quinazolin-2-ylamino)benzenesulfonamide], the half-inhibitory concentration (IC50) in assay [1] was under 5 µM. Besides, in assay [2] (setting [4]), the EC50 lay within 5 to 10 µM.
For `NS(=O)(=O)c1ccc(Nc2ncc3ccc(-c4ccnc(N5CCCC5)c4)cc3n2)cc1` [Compound 851, 4-(7-(2-(pyrrolidin-1-yl)pyridin-4-yl)quinazolin-2-ylamino)benzenesulfonamide], in that order: 5 to 10 µM and under 5 µM.
Consider `NS(=O)(=O)c1ccc(Nc2ncc3ccc(-c4ccnc(N5CCOCC5)c4)cc3n2)cc1` [Compound 852, 4-(7-(2-morpholinopyridin-4-yl)quinazolin-2-ylamino)benzenesulfonamide], for which, in assay [1], the half-maximal inhibitory concentration (IC50) was under 5 µM. Also, in assay [2] (setting [4]), the EC50 is under 5 µM.
Turning to `NS(=O)(=O)c1ccc(Nc2ncc3ccc(-c4cccnc4)c(OC4CCNCC4)c3n2)cc1` [Compound 853, 4-(8-(piperidin-4-yloxy)-7-(pyridin-3-yl)quinazolin-2-ylamino)benzenesulfonamide], the half-maximal inhibitory concentration (IC50) in assay [1] is under 5 µM. Besides, the EC50 in assay [2] (setting [4]) is under 5 µM.
Turning to `NC(=O)c1ccc(-c2ccc3cnc(Nc4ccc(S(N)(=O)=O)cc4)nc3c2OC2CCNCC2)cc1` [Compound 854, 4-(8-(piperidin-4-yloxy)-2-(4-sulfamoylphenylamino)quinazolin-7-yl)benzamide], in assay [1], the half-inhibitory concentration (IC50) was under 5 µM. Besides, the EC50 in assay [2] (setting [4]) lay within 5 to 10 µM.
For `NS(=O)(=O)c1ccc(Nc2ncc3ccc(-c4ccncc4)c(OC4CCNCC4)c3n2)cc1` [Compound 855, 4-(8-(piperidin-4-yloxy)-7-(pyridin-4-yl)quinazolin-2-ylamino)benzenesulfonamide], in that order: under 5 µM and 5 to 10 µM.
Take `Nc1ccc(-c2ccc3cnc(Nc4ccc(S(N)(=O)=O)cc4)nc3c2OC2CCNCC2)cn1` [Compound 856, 4-(7-(6-aminopyridin-3-yl)-8-(piperidin-4-yloxy)quinazolin-2-ylamino)benzenesulfonamide]: the IC50 in assay [1] was under 5 µM. For the same compound, the EC50 in assay [2] (setting [4]) was under 5 µM.
For the compound `Nc1ncc(-c2ccc3cnc(Nc4ccc(S(N)(=O)=O)cc4)nc3c2OC2CCNCC2)cn1` [Compound 857, 4-(7-(2-aminopyrimidin-5-yl)-8-(piperidin-4-yloxy)quinazolin-2-ylamino)benzenesulfonamide], the half-inhibitory concentration (IC50) in assay [1] was under 5 µM. Also, the EC50 in assay [2] (setting [4]) was 5 to 10 µM.
Take `COc1cncc(-c2ccc3cnc(Nc4ccc(S(N)(=O)=O)cc4)nc3c2OC2CCNCC2)c1` [Compound 858, 4-(7-(5-methoxypyridin-3-yl)-8-(piperidin-4-yloxy)quinazolin-2-ylamino)benzenesulfonamide]: the half-inhibitory concentration (IC50) in assay [1] is under 5 µM. Also, in assay [2] (setting [4]), the EC50 is under 5 µM.
